Results on 21 molecules are retold here after patent US20080004302A1, “Novel Compounds” (ASTRAZENECA AB, priority 2006, published 2008).

Where a name gives a salt, the structure may show the parent alone. Read-outs that look alike come from different tables or passages of the source.

Assay [1] addresses T1, FGFR1 IIIc (Homo sapiens, UniProt P11362).
T1 construct: host or cells: Cos-1
The assay can be described thus: Cell based inhibition of transiently expressed FGFR1 IIIc phosphorylation via use of ECHO technology (Cos-1 cells).

The next assay deals with T2, FGFR kinase domain (Homo sapiens, UniProt P11362, C488A/C584S).
T2 construct: FGFR kinase domain (amino acids 458-765, C488A, C584S) N-terminally fused to a His6-tag; made in house
The assay can be described thus: Kinase assay (ELISA) for inhibition of FGFR activity. The assay is classed as biochemical. The protocol: To determine inhibition of FGFR activity, kinase assays were conducted using ELISA (Enzyme-Linked Immunosorbent Assay) technology.
Kinase activity assays were performed in 384-well polypropylene plates (Matrix, 4311) with a total volume of 40 μl in each well. Each well was coated with 2 μg of polyEAY substrate (Sigma, P3899) at 4° C. overnight. The plates were then washed once with 100 μl PBS and once with 100 μl 50 mM HEPES (pH 7.4) prior to the addition of the kinase assay reagents. […] Various concentrations of test compounds were each added in 5% (v/v) DMSO to yield a final assay DMSO concentration of 1.25% (v/v). The kinase reactions were incubated at room temperature for 45 minutes and stopped by washing the plate three times with 100 μl PBS plus 0.05% Tween. […] Following this, the plates were then washed repeatedly with 100 μl PBS plus 0.05% Tween to remove all traces of the antibody solution. 40 μl of 50 μg/ml 3,3′,5,5′-Tetramethylbenzidine (Sigma, T2885), 0.05M phosphate-citrate buffer, containing 0.03% sodium perborate was added to each well and the plates incubated at room temperature for twelve minutes. The colour reaction was stopped by the addition of 20 μl 2M H2SO4 and the plates read at 450 nm on a Spectrafluor Plus (Tecan).
Background: An ELISA detects its analyte on a solid surface through an enzyme-linked reagent.

A further assay has as its target T3, human IGF1R (Homo sapiens, UniProt P08069).
T3 construct: expressed in transfected cells; host or cells: R+ cells (R- mouse fibroblasts transfected with human IGF1R)
As to the kind of experiment: Inhibition of insulin-like growth factor-1 receptor phosphorylation in R+ cells. The assay is classed as cell-based. Conditions: 30 nM IGF1, read-out: IGF cell class.

Another assay deals with FGFR1 kinase (Homo sapiens, UniProt P11362). As to the kind of experiment: Kinase assay (using Caliper technology). The assay is classed as biochemical. An outline of the steps:
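Human FGFR1 kinase activity measured with a 13-mer fluorescently tagged FGFR1-specific peptide substrate; compounds serially diluted in 5% (v/v) DMSO. Reactions ran 1.5 h at room temperature, stopped with EDTA-containing HEPES pH 7.5 buffer. Phosphorylated and unphosphorylated peptide separated by microfluidic mobility shift.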

For another assay, the system named is Erk phosphorylation. As to the kind of experiment: Growth factor (bFGF) stimulated Erk phosphorylation in NIH 3T3 cells. Conditions: Mus musculus, NIH3T3, NIH 3T3 cells, 3 ng/ml bFGF.
Assay [2] deals with T1, FGFR1 IIIc. As to the kind of experiment: Cell based inhibition of transiently expressed FGFR1 IIIc phosphorylation (Cos-1 cells).
[3] abbreviates: Cos-1 cells, phospho-FGFR1, ECHO dosing, upper bound of bin, read-out: IC50.
The mark [4] stands for this setting: FGFR inhibition tests, ELISA kinase assay, read-out: Activity class.
Setting [5] is: FGFR1 kinase, Caliper, upper bound of bin, read-out: IC50.
[6] abbreviates: Cos-1 cells, phospho-FGFR1, upper bound of bin, read-out: IC50.

T3 sequence (P08069 31-1367): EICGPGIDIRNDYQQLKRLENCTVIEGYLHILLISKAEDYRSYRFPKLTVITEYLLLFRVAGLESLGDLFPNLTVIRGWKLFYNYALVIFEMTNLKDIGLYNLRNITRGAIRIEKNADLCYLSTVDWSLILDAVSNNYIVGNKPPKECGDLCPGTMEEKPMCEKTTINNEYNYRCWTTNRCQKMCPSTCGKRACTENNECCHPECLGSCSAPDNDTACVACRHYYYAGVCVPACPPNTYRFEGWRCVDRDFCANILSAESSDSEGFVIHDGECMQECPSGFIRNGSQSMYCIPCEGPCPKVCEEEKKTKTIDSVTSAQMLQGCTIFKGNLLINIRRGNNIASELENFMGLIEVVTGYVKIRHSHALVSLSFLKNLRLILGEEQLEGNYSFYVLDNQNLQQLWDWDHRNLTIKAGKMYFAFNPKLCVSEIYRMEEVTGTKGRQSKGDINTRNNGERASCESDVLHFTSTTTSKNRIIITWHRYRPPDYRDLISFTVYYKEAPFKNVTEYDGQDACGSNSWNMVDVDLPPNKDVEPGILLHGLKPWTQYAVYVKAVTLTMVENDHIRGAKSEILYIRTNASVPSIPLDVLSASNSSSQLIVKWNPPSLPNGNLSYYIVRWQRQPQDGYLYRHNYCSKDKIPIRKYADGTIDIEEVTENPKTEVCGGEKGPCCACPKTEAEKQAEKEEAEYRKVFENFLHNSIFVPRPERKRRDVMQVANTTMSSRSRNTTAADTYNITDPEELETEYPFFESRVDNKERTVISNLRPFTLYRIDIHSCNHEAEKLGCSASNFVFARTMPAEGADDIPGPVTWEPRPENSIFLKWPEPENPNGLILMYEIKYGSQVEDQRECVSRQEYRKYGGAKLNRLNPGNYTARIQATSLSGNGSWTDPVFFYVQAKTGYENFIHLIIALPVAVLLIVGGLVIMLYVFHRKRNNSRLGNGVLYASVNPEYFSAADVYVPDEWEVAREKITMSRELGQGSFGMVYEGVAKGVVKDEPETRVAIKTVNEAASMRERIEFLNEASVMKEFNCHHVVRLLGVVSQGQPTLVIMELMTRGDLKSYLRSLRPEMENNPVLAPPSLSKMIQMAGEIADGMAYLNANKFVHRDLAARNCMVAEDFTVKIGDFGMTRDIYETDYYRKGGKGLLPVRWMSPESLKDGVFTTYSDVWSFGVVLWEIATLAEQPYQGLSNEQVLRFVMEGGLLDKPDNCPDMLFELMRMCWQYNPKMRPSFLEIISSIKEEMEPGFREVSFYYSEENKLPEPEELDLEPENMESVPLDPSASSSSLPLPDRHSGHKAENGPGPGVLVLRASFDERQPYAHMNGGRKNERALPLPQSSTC
Chain of FGFR1 kinase (P11362 22-822): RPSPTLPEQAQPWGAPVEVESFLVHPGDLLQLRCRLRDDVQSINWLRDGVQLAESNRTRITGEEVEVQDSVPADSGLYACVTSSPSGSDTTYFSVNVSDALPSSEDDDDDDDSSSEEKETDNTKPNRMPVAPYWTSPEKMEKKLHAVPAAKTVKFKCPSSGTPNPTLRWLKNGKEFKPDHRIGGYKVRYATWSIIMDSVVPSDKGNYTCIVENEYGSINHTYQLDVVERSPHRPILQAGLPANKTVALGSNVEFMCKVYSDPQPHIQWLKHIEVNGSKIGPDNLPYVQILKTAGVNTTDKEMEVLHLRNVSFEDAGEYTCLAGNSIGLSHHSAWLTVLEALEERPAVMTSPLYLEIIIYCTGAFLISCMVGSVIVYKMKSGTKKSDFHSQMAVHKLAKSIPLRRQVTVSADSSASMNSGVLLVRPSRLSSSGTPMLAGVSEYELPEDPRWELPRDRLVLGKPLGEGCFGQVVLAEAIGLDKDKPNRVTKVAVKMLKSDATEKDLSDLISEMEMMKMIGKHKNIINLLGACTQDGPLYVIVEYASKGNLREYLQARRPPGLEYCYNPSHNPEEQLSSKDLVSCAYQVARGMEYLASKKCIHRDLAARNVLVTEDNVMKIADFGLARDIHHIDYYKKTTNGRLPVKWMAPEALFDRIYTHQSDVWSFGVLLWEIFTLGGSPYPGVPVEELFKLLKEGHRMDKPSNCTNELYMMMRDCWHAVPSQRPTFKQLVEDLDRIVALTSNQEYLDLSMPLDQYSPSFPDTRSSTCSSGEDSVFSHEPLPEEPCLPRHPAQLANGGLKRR
T1 sequence (P11362 22-822): as above
T2 sequence (P11362 458-765 C488A/C584S): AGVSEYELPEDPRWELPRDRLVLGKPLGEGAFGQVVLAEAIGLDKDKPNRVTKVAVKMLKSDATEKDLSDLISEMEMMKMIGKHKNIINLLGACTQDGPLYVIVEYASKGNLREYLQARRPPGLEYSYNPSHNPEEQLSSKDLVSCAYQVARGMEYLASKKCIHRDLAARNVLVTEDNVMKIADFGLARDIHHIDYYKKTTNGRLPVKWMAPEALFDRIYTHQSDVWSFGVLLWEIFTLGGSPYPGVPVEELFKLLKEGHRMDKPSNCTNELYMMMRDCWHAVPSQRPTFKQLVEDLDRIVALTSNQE

On to `Cc1cc(CN(C)c2nccc(Nc3cc(C)[nH]n3)n2)on1` [Example 2, N-methyl-N-[(3-methylisoxazol-5-yl)methyl]-N′-(5-methyl-2H-pyrazol-3-yl)pyrimidine-2,4-diamine], for which the IC50 on FGFR1 IIIc [1] (setting [3]) is < 1000 nM; on FGFR kinase domain (setting [4]), 100 to 1000 nM.

`Cc1cc(Nc2ccnc(NCc3cc(C(N)=O)no3)n2)[nH]n1` [Example 4, 5-[[[4-[(5-methyl-2H-pyrazol-3-yl)amino]pyrimidin-2-yl]amino]methyl]isoxazole-3-carboxamide]: the IC50 on FGFR1 IIIc [1] is < 10000 nM; on FGFR kinase domain (Activity class), 100 to 1000 nM; on human IGF1R, > 10000 nM.

For the molecule `CCCc1cc(Nc2ccnc(NCc3cc(C)no3)n2)n[nH]1` [Example 6, N-[(3-methylisoxazol-5-yl)methyl]-N ′-(5-propyl-2H-pyrazol-3-yl)pyrimidine-2,4-diamine], the IC50 at FGFR1 IIIc [1] (setting [3]) is < 200 nM; on FGFR kinase domain (setting [4]), < 100 nM; at human IGF1R it was 100 to 1000 nM.

Take `CCCc1cc(Nc2ccnc(NCc3cc(C4CC4)no3)n2)n[nH]1` [Example 7, N-[(3-cyclopropyl-1,2-oxazol-5-yl)methyl]-N′-(5-propyl-2H-pyrazol-3-yl)pyrimidine-2,4-diamine]: the figures for the IC50 at FGFR1 IIIc [1] (setting [3]) and on FGFR kinase domain (setting [4]) were < 200 nM and < 100 nM, respectively.

On to `CCCc1cc(Nc2ccnc(NCc3cc(C(N)=O)no3)n2)n[nH]1` [Example 8, 5-[[[4-[(5-propyl-1H-pyrazol-3-yl)amino]pyrimidin-2-yl]amino]methyl]-1,2-oxazole-3-carboxamide], for which the results for the IC50 on FGFR1 IIIc [1] (setting [3]) and on FGFR kinase domain (setting [4]) were < 1000 nM and < 100 nM, respectively.

Take `c1cc(Nc2cc(C3CC3)[nH]n2)nc(NCc2cc(C3CC3)no2)n1` [Example 10, N-[(3-cyclopropyl-1,2-oxazol-5-yl)methyl]-N′-(5-cyclopropyl-2H-pyrazol-3-yl)pyrimidine-2,4-diamine]: the IC50 is < 200 nM on FGFR1 IIIc [1] (setting [3]), < 100 nM on FGFR kinase domain (setting [4]) and 100 to 1000 nM at human IGF1R.

In the case of `CCOCCCc1cc(Nc2ccnc(NCc3cc(C)no3)n2)n[nH]1` [Example 20, N′-[5-(3-ethoxypropyl)-2H-pyrazol-3-yl]-N-[(3-methyl-1,2-oxazol-5-yl)methyl]pyrimidine-2,4-diamine], the IC50 is < 10000 nM at FGFR1 IIIc [1] (setting [3]) and 100 to 1000 nM on FGFR kinase domain (setting [4]).

As to `CCOCCCc1cc(Nc2ccnc(NCc3cc(C4CC4)no3)n2)[nH]n1` [Example 21, N-[(3-cyclopropyl-1,2-oxazol-5-yl)methyl]-N′-[5-(3-ethoxypropyl)-2H-pyrazol-3-yl]pyrimidine-2,4-diamine], the values for the IC50 at FGFR1 IIIc [1] (setting [3]) and on FGFR kinase domain (setting [4]) were < 1000 nM and < 100 nM, respectively.

With `CCOCCCc1cc(Nc2ccnc(NCc3cc(C(N)=O)no3)n2)[nH]n1` [Example 22, 5-[[[4-[[5-(3-ethoxypropyl)-2H-pyrazol-3-yl]amino]pyrimidin-2-yl]amino]methyl]-1,2-oxazole-3-carboxamide], the IC50 on FGFR1 IIIc [1] (setting [3]) was < 30000 nM; at FGFR kinase domain (setting [4]), 100 to 1000 nM.

Turning to `COc1ccc(CCc2cc(Nc3ccnc(NCc4cc(C5CC5)no4)n3)n[nH]2)cc1` [Example 25, N-[(3-cyclopropyl-1,2-oxazol-5-yl)methyl]-N′-[5-[2-(4-methoxyphenyl)ethyl]-2H-pyrazol-3-yl]pyrimidine-2,4-diamine], the IC50 on FGFR1 IIIc [1] (setting [3]) is < 200 nM; on FGFR1 kinase (setting [5]), < 1000 nM; at FGFR kinase domain (setting [4]), 100 to 1000 nM.

For `COc1ccc(CCc2cc(Nc3ccnc(NCc4cc(C(N)=O)no4)n3)[nH]n2)cc1` [Example 26, 5-[[[4-[[5-[2-(4-methoxyphenyl)ethyl]-2H-pyrazol-3-yl]amino]pyrimidin-2-yl]amino]methyl]-1,2-oxazole-3-carboxamide], the IC50 at FGFR1 IIIc [1] (setting [3]) is < 10000 nM; on FGFR1 kinase (setting [5]) it was < 1000 nM; on FGFR kinase domain (setting [4]), 100 to 1000 nM.

Turning to `Cc1cc(CNc2nccc(Nc3cc(CCc4cccc(O)c4)[nH]n3)n2)on1` [Example 41, 3-[2-[5-[[2-[(3-methyl1,2-oxazol-5-yl)methylamino]pyrimidin-4-yl]amino]-1H-pyrazol-3-yl]ethyl]phenol], the IC50 was < 1000 nM at FGFR1 IIIc [1] (setting [3]); < 200 nM on FGFR1 kinase (setting [5]); < 200 nM in the assay with Erk phosphorylation; < 1000 nM at FGFR1 IIIc [2] (setting [6]); 1000 to 10000 nM on human IGF1R.

For `COc1cc(CCc2cc(Nc3ccnc(NCc4cc(C)no4)n3)n[nH]2)cc(OC)c1` [Example 42, N′-[5-[2-(3,5-dimethoxyphenyl)ethyl]-2H-pyrazol-3-yl]-N-[(3-methyl1,2-oxazol-5-yl)methyl]pyrimidine-2,4-diamine], the IC50 against FGFR1 IIIc [1] is < 200 nM; against FGFR1 kinase it was < 200 nM; with Erk phosphorylation it was < 200 nM; on FGFR1 IIIc [2], < 200 nM; at human IGF1R, 1000 to 10000 nM.

On to `Cc1cccc(CCc2cc(Nc3ccnc(NCc4cc(C)no4)n3)n[nH]2)c1` [Example 52, N-[(3-methyl1,2-oxazol-5-yl)methyl]-N′-[5-[2-(3-methylphenyl)ethyl]-1H-pyrazol-3-yl]pyrimidine-2,4-diamine hydrochloride], for which the IC50 is < 1000 nM on FGFR1 IIIc [1] (setting [3]); < 200 nM on FGFR1 kinase (setting [5]); < 200 nM in the assay on Erk phosphorylation; < 1000 nM on FGFR1 IIIc [2] (setting [6]); > 10000 nM at human IGF1R.

With `Cc1cc(Nc2cc(OC(C)C)[nH]n2)nc(NCc2cc(C3CC3)no2)n1` [Example 69, N-[(3-cyclopropyl-1,2-oxazol-5-yl)methyl]-6-methyl-N′-(5-propan-2-yloxy-2H-pyrazol-3-yl)pyrimidine-2,4-diamine], the IC50 at FGFR1 IIIc [1] (setting [3]) was < 200 nM; on FGFR1 kinase (setting [5]), < 200 nM; at FGFR kinase domain (setting [4]) it was < 100 nM.

Consider `COc1cc(Nc2cc(OC(C)C)[nH]n2)nc(NCc2cc(C3CC3)no2)n1` [Example 71, N-[(3-cyclopropyl-1,2-oxazol-5-yl)methyl]-6-methoxy-N′-(5-propan-2-yloxy-2H-pyrazol-3-yl)pyrimidine-2,4-diamine], for which the IC50 is < 200 nM at FGFR1 IIIc [1] (setting [3]), < 200 nM at FGFR1 kinase (setting [5]) and < 100 nM at FGFR kinase domain (setting [4]).

Take `CNC(=O)c1cccc(COc2cc(Nc3ccnc(NCc4cc(C)no4)n3)n[nH]2)c1` [Example 91, N-methyl-3-[[5-[[2-[(3-methyl1,2-oxazol-5-yl)methylamino]pyrimidin-4-yl]amino]-1H-pyrazol-3-yl]oxymethyl]benzamide]: the IC50 at FGFR1 IIIc [1] (setting [3]) was < 1000 nM; on FGFR1 kinase (setting [5]), < 200 nM; in the assay on Erk phosphorylation, < 200 nM; at FGFR1 IIIc [2] (setting [6]) it was < 1000 nM; on human IGF1R it was > 10000 nM.

For `Cc1cc(CNc2nccc(Nc3cc(OCc4cccc(Cl)c4)[nH]n3)n2)on1` [Example 93, N′-[5-[(3-chlorophenyl)methoxy]-1H-pyrazol-3-yl]-N-[(3-methyl1,2-oxazol-5-yl)methyl]pyrimidine-2,4-diamine hydrochloride], the IC50 on FGFR1 IIIc [1] (setting [3]) is < 1000 nM; on FGFR1 kinase (setting [5]), < 1000 nM; in the assay with Erk phosphorylation, < 200 nM; at FGFR1 IIIc [2] (setting [6]), < 1000 nM; on human IGF1R, > 10000 nM.

Take `Cc1cc(CNc2nccc(Nc3cc(OCc4cccc(F)c4)[nH]n3)n2)on1` [Example 94, N′-[5-[(3-fluorophenyl)methoxy]-1H-pyrazol-3-yl]-N-[(3-methyl1,2-oxazol-5-yl)methyl]pyrimidine-2,4-diamine hydrochloride]: the IC50 was < 200 nM on FGFR1 IIIc [1] (setting [3]); < 1000 nM at FGFR1 kinase (setting [5]); < 200 nM in the assay on Erk phosphorylation; < 1000 nM on FGFR1 IIIc [2] (setting [6]); > 10000 nM on human IGF1R.

Turning to `COC(=O)c1cccc(COc2cc(Nc3ccnc(NCc4cc(C)no4)n3)n[nH]2)c1` [Example 97, Methyl 3-[[5-[[2-[(3-methyl1,2-oxazol-5-yl)methylamino]pyrimidin-4-yl]amino]-1H-pyrazol-3-yl]oxymethyl]benzoate hydrochloride], the IC50 at FGFR1 IIIc [1] (setting [3]) was < 200 nM; with Erk phosphorylation, < 200 nM; at FGFR1 IIIc [2] (setting [6]) it was < 200 nM; at human IGF1R, 1000 to 10000 nM.

Consider `c1coc(CCc2cc(Nc3ccnc(NCc4cc(C5CC5)no4)n3)n[nH]2)c1` [Example 111, N-[(3-cyclopropyl1,2-oxazol-5-yl)methyl]-N′-[5-[2-(2-furyl)ethyl]-2H-pyrazol-3-yl]pyrimidine-2,4-diamine], for which the IC50 is < 200 nM at FGFR1 IIIc [1] (setting [3]); < 200 nM on FGFR1 kinase (setting [5]); < 200 nM in the assay on Erk phosphorylation; < 1000 nM at FGFR1 IIIc [2] (setting [6]); 1000 to 10000 nM on human IGF1R.
